Test results as given in patent publication US8778882B2, “Agent for strengthening calcium containing tissue and use thereof” (Hayashibara Co., Ltd., priority 2002, dated 2014).

Key:
[1] = tested on: mouse pre-osteoblastic cell MC3T3-E1; assay: Alkaline phosphatase activity in mouse pre-osteoblastic cells; assay type: cell-based; settings: for activity at 20 µM: Mus musculus; for alkaline phosphatase activity in vitro: glycosides
Experimental: To increase number of osteoblastic cells having calcium-deposition activity is important for increasing bone mass. […] The activity is at low level in pre-osteoblastic cells and at high level in osteoblastic cells differentiated form the pre-osteoblastic cells. […] Since final ethanol concentration in the medium is 0.2% (v/v), α-MEM medium containing 0.2% (v/v) ethanol was prepared as a negative control. The cells were inoculated for eight days as changing the medium therewith to fresh medium with or without each sample per three days. Alkaline phosphatase activity was measured using “Alkaline Phospha B-Test Wako” (commercialized by Wako Pure Chemical Industries, Osaka, Japan) according with Kajii et al (Archives of Oral Biology, Vol. 44, pp. 233-241, (1999)). Briefly, to the above described mouse pre-osteoblastic cells washed with 1 ml of 0.25 M sucrose solution three times after removing the medium were added 0.45 ml of 50 mM carbonate salt buffer (pH9.8) containing 1 mM magnesium chloride and 50 mM sucrose and 0.05 ml of 3.4 mM disodium p-nitrophenyl phosphate in due course. The mixture was incubated at 25° C. for five minutes and admixed with 1.5 ml of 0.6N sodium hydroxide as a reaction terminator. Absorbance 405 nm of p-nitrophenol generated by alkaline phosphatase in the resulting mixture was measured, and the obtained values were used as values as alkaline phosphatase activity. […] The experiment was performed by the method according to Experiment 1 except that culture day in the medium containing each sample was three, six or nine, and concentration of each sample was 5, 10 or 20 μM. […] As a negative control, mediums containing ethanol in the above concentration were prepared for calculating relative activity to the activity of each control.

[2] = tested on: mouse pre-osteoblastic cell MC3T3-E1; assay: Calcium deposition amount by Calcium C Test Wako; assay type: cell-based; settings: for activity at 20 µM: Mus musculus, MC3T3-E1; for activity at 20 µM / Relative Calcium Deposition Amount (%): flavonoid comparison, Calcium C Test Wako, relative to 0.2% (v/v) ethanol negative control; for calcium deposition in vitro: glycosides
Description: Other flavonoid compounds than kaempferol or hesperetin were investigated where they have the same effect or not. Flavone (commercialized by Kanto Kagaku, Tokyo, Japan), apigenin (commercialized by Funakoshi, Co., Ltd., Tokyo, Japan), flavonol (commercialized by Tokyo Kasei Kogyo, Co., Ltd., Tokyo, Japan), quercetin (commercialized by Kanto Kagaku, Tokyo, Japan), kaempferol (commercialized by Funakoshi, Co., Ltd., Tokyo, Japan), rutin (commercialized by Kanto Kagaku, Tokyo, Japan), flavanone (commercialized by Kanto Kagaku, Tokyo, Japan), naringenin (commercialized by Ardrich Corporation), hesperetin (commercialized by Funakoshi, Co., Ltd., Tokyo, Japan), hesperidin (commercialized by Kanto Kagaku, Tokyo, Japan), chalcone (commercialized by Merk Corporation), fuloretin (commercialized by Sigma Corporation), catechin (commercialized by Sigma Corporation), ipriflavone (commercialized by Daito Corporation, Toyama, Japan), taxifolin (commercialized by Funakoshi, Co., Ltd., Tokyo, Japan), sulfuretin (commercialized by Funakoshi, Co., Ltd.; Tokyo, Japan), or cyanidin (commercialized by Funakoshi, Co., Ltd., Tokyo, Japan) was selected as test samples. Alkaline phosphatase activity was measured by the method of Experiment 1. Calcium deposition was measured by usual method using “Calcium C Test Wako” (commercialized by Wako Pure Chemical Industries, Osaka, Japan), briefly, cultured cells were washed with 1 ml of Dulbecco phosphate buffer saline three times after removing the medium. To the resultant was added 0.5 ml of 2N hydrochloric acid to resolve deposited calcium. To 5 μl of the resultant solution were added 0.5 ml of 0.88M monoethanolamine buffer (pH11) and 0.05 ml of 0.63 mM o-cresolphthalein complexone solution (binding to calcium ion to form chelate complex) containing 69 mM 8-quinolinol and mixed. Calcium amount per one hole of the plate was calculated by measuring absorbance 570 nm of the resultants and standardizing with a standard calcium solution. The judgement of alkaline phosphatase activity or calcium deposition amount of each sample was to calculate the relative activity or the relative calcium deposition amount to the negative control (only medium containing 0.2% (v/v) ethanol) and to compare each other.
The enhancement of calcium deposition between kaempferol and ipripfavone were compared. Test samples and their adding manner were same as Experiment 4. Calcium deposition amount was measured by usual method using “Calcium C Test Wako” (commercialized by Wako Pure Chemical Industries, Osaka, Japan); briefly, cultured cells were washed with 1 ml of Dulbecco phosphate buffer saline three times after removing the medium. To the resultant was added 0.5 ml of 2N hydrochloric acid to resolve deposited calcium. To 5 μl of the resolving solution were added 0.5 ml of 0.88M monoethanolamine buffer (pH11) and 0.05 ml of 0.63 mM o-cresolphthalein complexone solution (binding to calcium ion to form chelate complex) containing 69 mM 8-quinolinol and mixed, Calcium amount per one hole of the plate was calculated by measuring absorbance 570 nm of the resultants and standardizing with a standard calcium solution.
Kaempferol or hesperetin in combination with ipriflavone, or a kind of isoflavones, was investigated whether to enhance calcium deposition or not. Methods for preparing samples and culturing the cells were the same method described in Experiment 1 except culturing the cells for five days, Method for measuring calcium was the same method described in Experiment 3 and 5. Final ethanol concentration of the medium containing each sample was adjusted as same concentration.

[3] = tested on: Rat Femur and Tibia; assay: Enhancing calcium deposition in rat femur and tibia; assay type: in vivo; settings: for calcium deposition in femur and tibia: rats, eight weeks feeding; for Calcium Content Per One Dried Bone / Dried Bone Mass: rats fed sample in high sucrose feeding stuff for eight weeks
Experimental: The experiment was performed using six three-weeks-aged female Wister rats per one group. The rats were fed with high sucrose feeding stuff containing ingredients listed Table 11 (In the Table, each value means “weight %”.) and one part by weight of each test sample; hesperetin (commercialized by Funakoshi, Co., Ltd., Tokyo, Japan), quercetin (commercialized by Tokyo Kasei Kogyo, Co., Ltd., Tokyo, Japan), α-glycosyl hesperidin (product name “αG HESPERIDINE”, commercialized by Hayashibara Shoji Inc., Okayama, Japan), α-glycosyl rutin (product name “αG RUTIN P”, commercialized by Hayashibara Shoji Inc., Okayama, Japan), or ipriflavone (commercialized by Daito Corporation, Toyama, Japan) (positive control). As a negative control, rats fed with feedstuff containing one part by weight of sucrose replacing test sample were prepared. The rats were allowed to freely take water. The rats were killed after eight weeks, and then, their femurs and tibias were excised. Each femur or tibia dried at 100° C. for about six hours was measured by electric even balance for high precision analysis (product name “HA180M/12QM”, commercialized by A & D Co, Ltd., Tokyo, Japan), and then, each bone was placed into a crucible and burned in an incinerator at 950° C. for six hours. The cinerary resultant was resolved in hydrochloric solution and provided for measuring calcium amount by atomic absorption photometer. Calcium amount per one dried bone was calculated and compared each other.

[4] = MC3T3-E1, 20 mM each compound (so in the source), eight days, relative to 0.2% (v/v) ethanol negative control
[5] = MC3T3-E1, flavonoid comparison, method of Experiment 1, relative to 0.2% (v/v) ethanol negative control
[6] = 192 h, MC3T3-E1, 20 mM each compound (so in the source), eight days, relative to 0.2% (v/v) ethanol negative control
[7] = flavonoid comparison, method of Experiment 1, relative to 0.2% (v/v) ethanol negative control

Cc1cc(=O)oc2cc(O)ccc12 [4-Methylumbelliferone]
Relative Alkaline Phosphatase Activity (%) [1, 4]: 96%

O=c1cc(-c2ccc(O)cc2)oc2cc(O)cc(O)c12 [Apigenin]
activity at 20 µM [1, 5]: 128%
activity at 20 µM [2]: 247%

Cn1c(=O)c2c(ncn2C)n(C)c1=O [Caffein, caffein]
activity at 20 µM [1, 6]: 100%

O.Oc1cc(O)c2c(c1)O[C@H](c1ccc(O)c(O)c1)[C@@H](O)C2 [Catechin]
Relative Alkaline Phosphatase Activity (%) [1, 7]: 118%
Relative Calcium Deposition Amount (%) [2]: 247%

O=C(/C=C/c1ccccc1)c1ccccc1 [Chalcone]
activity at 20 µM [1, 5]: 105%
activity at 20 µM [2]: 104%

Oc1cc(O)c2cc(O)c(-c3ccc(O)c(O)c3)[o+]c2c1 [Cyanidin]
Relative Alkaline Phosphatase Activity (%) [1, 7]: 115%
Relative Calcium Deposition Amount (%) [2]: 216%

O=C1CC(c2ccccc2)Oc2ccccc21 (stereo not drawn) [Flavanone]
activity at 20 µM [1, 5]: 109%
activity at 20 µM [2]: 311%

O=c1cc(-c2ccccc2)oc2ccccc12 [Flavone]
activity at 20 µM [1, 5]: 103%
activity at 20 µM [2]: 158%

O=c1c(O)c(-c2ccccc2)oc2ccccc12 [Flavonol]
activity at 20 µM [1, 5]: 139%
activity at 20 µM [2]: 295%

CC1(C)[C@@H](O[C@H]2O[C@H](C(=O)O)[C@@H](O)[C@H](O)[C@H]2O[C@@H]2O[C@H](C(=O)O)[C@@H](O)[C@H](O)[C@H]2O)CC[C@]2(C)[C@H]3C(=O)C=C4[C@@H]5C[C@@](C)(C(=O)O)CC[C@]5(C)CC[C@@]4(C)[C@]3(C)CC[C@@H]12 [Glycyrrizinic Acid]
Relative Alkaline Phosphatase Activity (%) [1, 4]: 97%

COc1ccc([C@@H]2CC(=O)c3c(O)cc(O[C@@H]4O[C@H](CO[C@@H]5O[C@@H](C)[C@H](O)[C@@H](O)[C@H]5O)[C@@H](O)[C@H](O)[C@H]4O)cc3O2)cc1O [Hesperidin]
enhancement of alkaline phosphatase activity, daily course (FIG. 1) ([1]; 5, 10 or 20 μM, culture day three, six or nine, relative to ethanol control): remarkable enhancement of alkaline phosphatase activity at third day
Relative Alkaline Phosphatase Activity (%) [1, 7]: 107%
alkaline phosphatase activity in vitro [1]: did not demonstrate
Relative Calcium Deposition Amount (%) [2]: 118%
calcium deposition in vitro [2]: did not demonstrate
calcium deposition in femur and tibia [3]: increase of calcium deposition content

CC(C)Oc1ccc2c(=O)c(-c3ccccc3)coc2c1 [Ipriflavone, reference compound]
Relative Alkaline Phosphatase Activity (%) [1, 7]: 114%
Relative Calcium Deposition Amount (%) [2]: 263%
Calcium Content Per One Dried Bone ([3]; Femur): 120.0 mg
Dried Bone Mass ([3]; Femur): 0.428 g
Calcium Content Per One Dried Bone ([3]; Tibia): 106.0 mg
Dried Bone Mass ([3]; Tibia): 0.338 g

CC1CCC(C(C)C)C(O)C1 (stereo not drawn) [Menthol, menthol]
activity at 20 µM [1, 6]: 95%

O=C1C[C@@H](c2ccc(O)cc2)Oc2cc(O)cc(O)c21 [Naringenin]
activity at 20 µM [1, 5]: 110%
activity at 20 µM [2]: 271%

O=c1c(O)c(-c2ccc(O)c(O)c2)oc2cc(O)cc(O)c12 [Quercetin]
activity at 20 µM [1, 5]: 120%
activity at 20 µM [2]: 118%
Calcium Content Per One Dried Bone ([3]; Femur): 120.3 mg
Dried Bone Mass ([3]; Femur): 0.456 g
Calcium Content Per One Dried Bone ([3]; Tibia): 108.7 mg
Dried Bone Mass ([3]; Tibia): 0.352 g

C[C@@H]1O[C@@H](OC[C@H]2O[C@@H](Oc3c(-c4ccc(O)c(O)c4)oc4cc(O)cc(O)c4c3=O)[C@H](O)[C@@H](O)[C@@H]2O)[C@H](O)[C@H](O)[C@H]1O [Rutin]
Relative Alkaline Phosphatase Activity (%) [1, 7]: 109%
Relative Calcium Deposition Amount (%) [2]: 74%

O=C1/C(=C/c2ccc(O)c(O)c2)Oc2cc(O)ccc21 [Sulfuretin]
Relative Alkaline Phosphatase Activity (%) [1, 7]: 126%
Relative Calcium Deposition Amount (%) [2]: 157%

O=C1c2c(O)cc(O)cc2O[C@H](c2ccc(O)c(O)c2)[C@H]1O [Taxifolin]
activity at 20 µM [1, 5]: 98%
activity at 20 µM [2]: 234%

COc1cc(C=O)ccc1O [Vanillin, vanillin]
activity at 20 µM [1, 6]: 89%

CC1=C(/C=C/C(C)=C/C=C/C(C)=C/C=C/C=C(C)/C=C/C=C(C)/C=C/C2=C(C)CCCC2(C)C)C(C)(C)CCC1 [β-Carotene, β-carotene]
activity at 20 µM [1, 6]: 81%

Phloretin
Relative Alkaline Phosphatase Activity (%) [1, 7]: 109%
Relative Calcium Deposition Amount (%) [2]: 238%

tocopherol
Relative Alkaline Phosphatase Activity (%) [1, 4]: 100%

α-glycosyl hesperidin
alkaline phosphatase activity in vitro [1]: did not demonstrate
calcium deposition in vitro [2]: did not demonstrate
Calcium Content Per One Dried Bone ([3]; Femur): 126.9 mg
Dried Bone Mass ([3]; Femur): 0.454 g
Calcium Content Per One Dried Bone ([3]; Tibia): 109.5 mg
Dried Bone Mass ([3]; Tibia): 0.349 g
calcium deposition in femur and tibia [3]: increase of calcium deposition content

α-glycosyl rutin
alkaline phosphatase activity in vitro [1]: did not demonstrate
calcium deposition in vitro [2]: did not demonstrate
Calcium Content Per One Dried Bone ([3]; Femur): 119.9 mg
Dried Bone Mass ([3]; Femur): 0.439 g
Calcium Content Per One Dried Bone ([3]; Tibia): 107.7 mg
Dried Bone Mass ([3]; Tibia): 0.343 g
calcium deposition in femur and tibia [3]: increase of calcium deposition content
